Molecules are shown by their SMILES.

Holding throughout (type): in vivo
In series [1] the test system is male rats of Wistar strain. Briefly: Acute oral toxicity (lethality) in rats. The settings on record: 10 male Wistar rats.
Series [2] concerns male ddY mice. Briefly: Acetic acid writhing method (analgesic effect). As to conditions: Mus musculus, po, 30 minutes before i.p. 0.7 % acetic acid, writhes counted 10 to 20 minutes after injection, read-out: Analgesic action (ED50) Acetic acid writhing method. On the procedure: (1) Acetic Acid Writhing Method [Koster, Anderson and De Beer: Fed. Proc., 18, 412(1959)]
10 male ddY mice weighing 19 - 23 g were used in testing each compound. The test compounds were administered orally 30 minutes before in the intraperitoneal injection (0.1 ml/ 10 g ) of 0.7 % acetic acid. The number of writhes were counted in each mouse during a period spanning 10 to 20 minutes after the acetic acid injection.
The percent inhibition was calculated as compared with the number of writhes in the control group, and the ED50 values were calculated from the inhibitory percent.

The test system of series [3] is male ddY mice. Put plainly: Tail pressure method (analgesic effect). As to conditions: Mus musculus, po, pain threshold raised more than 50 % = positive, measured every 30 minutes for 120 minutes, read-out: Analgesic action (ED50) Tail pressure method. The protocol: (2) Tail Pressure Method [Takagi and Kameyama: Yakugaku Zasshi, 78, 553(1958)]
10 male ddY mice weighing 20 - 25 g were used in testing each compound. The pressure stimulus was applied to the base of the mouse tail. The test compounds were administered orally and the pain threshold was measured every 30 minutes for 120 minutes.
Animals of which post-drug pain threshold raised more than 50 % as compared with its pre-drug threshold were regarded as positive for the analgesic activity, and the ED50 values were calculated from the positive percent.

The test system of a further series is male S.D. rats. Put plainly: Adjuvant-induced arthritic pain (analgesic effect). The settings on record: Rattus norvegicus, po, Mycobacterium butyricum polyarthritis, pain response every 1 hour for 5 hours, read-out: Analgesic action (ED50) Adjuvant-induced arthritic pain method. On the procedure:
(4) Adjuvant-induced Arthritic Pain [Kuzuna and Kawai: Chem. Pha^rm. Bull., ^23, 1184(1975)]
6 male S.D. rats weighing 160 - 200 g were used in testing each compound. Polyarthritis was induced by the intradermal injection (0.1 ml/rat) of 0.5 % Mycobacterium butyricum suspension into the distal portion of the tail. The pain stimulus was applied by a gentle flection of the right tarso-tibial joints repeatedly 5 times at intervals 4 to 5 seconds, the vocalization following the pain stimulus was regarded as pain response.

The test system of the next series is male Wistar rats. Briefly: Randall & Selitto method (analgesic effect, brewer's yeast inflamed paw). The settings on record: Rattus norvegicus, po, 2 hours after subplantar 20 % brewer's yeast, pain threshold every 1 hour for 4 hours, read-out: Analgesic action (ED50) Randall & Selitto method. The protocol: (3) Randall & Selitto Method [Randall and Selitto: Arch. Int. Pharmacodyn. 111, 409(1957)]
6 male Wistar rats weighing 90 - 110 g were used in testing each compound. The pain threshold was measured with an analgesic meter (Ugo Basile). The test compounds were adminstered orally 2 hours after the subplantar injection(0.1 ml/rat) of 20 % brewer's yeast suspension into the right hind paw, and the pain threshold was measured every 1 hour for 4 hours.
Animals of which post-drug pain threshold raised more than 50 % as compared with the threshold in control group were regarded as positive for the analgesic activity, and the ED50 values were calculated from the positive percent.

Consider `CCCCC(CC)C(=O)n1c2cc(C(F)(F)F)ccc2c2oc(C(=O)N3CCOCC3)cc21` (stereo not shown) [Example 1, 4-(2-ethylhexanoyl)-2-morpholinocarbonyl-6-trifluoromethyl-furo-[3,2-b]-indole], for which the death entry in series [1] (1000 mg/kg orally) is recorded as “no death was observed”.
As to `CC(C)OC(=O)n1c2cc(C(F)(F)F)ccc2c2oc(C(=O)N3CCOCC3)cc21` [Example 2, 4-isopropoxycarbonyl-2-morpholinocarbonyl-6-trifluoromethyl-furo-[3,2-b]indole], the death result in series [1] (1000 mg/kg orally) was “no death was observed”.
For the compound `CC(C)CC(=O)n1c2cc(C(F)(F)F)ccc2c2oc(C(=O)N3CCOCC3)cc21` [Example 3, 4-isobutylcarbonyl-2-morpholinocarbonyl-6-trifluoromethyl-furo[3,2-b]indole], in series [1] (2000 mg/kg orally), the death entry is listed as “no death was observed”.
Turning to `O=C(c1cc2[nH]c3cc(C(F)(F)F)ccc3c2o1)N1CCOCC1` [R: -H, 2-morpholinocarbonyl-6-trifluoromethyl-4H-furo[3,2-b]indole], the ED50 with male ddY mice [2], in the series with male ddY mice [3], with male S.D. rats and with male Wistar rats was greater than 100 mg/kg in each case.
